Reference: patent US20260274828A1, “BROAD SPECTRUM ANTIFUNGAL KETO-ALKYL-PYRIDINIUM COMPOUNDS” (priority 2023, published 2026)

What was measured:
[1] = test system: C. auris; test: Planktonic MIC, CLSI guidelines; assay type: cell-based, Candida auris; details: Candidozyma auris
Description: Minimum inhibitory concentrations were determined using CLSI guidelines (Beattie & Krysan, 2021; Wiederhold, 2021). All yeasts were cultured overnight in 3 mL YPD at 30° C., then washed twice in sterile PBS. Two-fold serial dilutions of each compound were prepared in RMPI+MOPS pH 7 (Gibco RPMI 1640 with L-glutamine [11875-093] and 0.165M 352 MOPS), then 1×10^3 cells were added per well. Plates were incubated at 37° C. for 24 hours (C. albicans and S. cerevisiae) or 72 hours (C. neoformans). For A. fumigatus and F. oxysporum wells were inoculated with 1.25×10^4 conidia. Plates were incubated at 37° C. for 48 hours for A. fumigatus and 72 hours for F. oxysporum. All MICs are defined as the well with complete growth inhibition as determined by visual inspection with the exception of MICs of fluconazole against C. albicans where the MIC is defined as at least 50% reduction in growth compared to the control.

[2] = test system: P. aeruginosa; test: Antibacterial MIC; assay type: cell-based, Pseudomonas aeruginosa

Question: How did the MIC ([1]; strain 0381, drug susceptible) turn out when Nc1cc[n+](CC(=O)c2ccc3c(c2)OC(c2ccccc2)(c2ccccc2)O3)cc1.[Cl-] [Compound A] was run?
Answer: The MIC was 8 µg/mL.

Question: What about the MIC ([1]; strain 0390, multi-drug resistant) of the same molecule?
Answer: The MIC was 2 µg/mL.

Question: What about the “activity compared to cetylpyridinium chloride” value ([2]; P. aeruginosa) of the same molecule?
Answer: The value was “more active”.

Question: What about the MIC ([2]; Pseudomonas aeruginosa, strain PAO1) of the same molecule?
Answer: The MIC was 64 µg/mL.
